Experiment [1] is described as follows: Body weight loss in high-fat diet C57bl/6 mice. The class given is in vivo. The note with it: once daily, 28 days, oral gavage, male C57bl/6 mice on high-fat diet, BW loss relative to pretreatment. From the text:
Ten to twelve weeks old male C57bl/6 mice are obtained from commercial vendors, and placed on high-fat diet (60% kcal fat) for at least 15 weeks. Treatment with MetAP2 inhibitors is initiated when the average body weight reaches approximately 50 g. The MetAP2 inhibitors are formulated in an aqueous solution of 0.5% methyl cellulose and administered through oral gavage. Control animals receive the equivalent volume of aqueous 0.5% methyl cellulose solution without a MetAP2 inhibitor. Body weight (BW) and food intake are recorded daily, and efficacy is calculated individually as a percentage of BW loss relative to the pretreatment values. Depending on the study design, the treatment is continued for 12, 14 or 28 days. In some studies, indirect calorimetry or body composition are determined at the end of the treatment.
TABLE 2 lists body weight loss (BWL) in mice following treatment with some of the compounds shown in the examples. The compounds shown in TABLE 2 were tested in accordance with the BWL protocol described in the specification beginning at page 36, using the dose, dosing regimen (frequency), and treatment duration indicated in table.

Experiment [2] in a line: Hypoglycemic activity in KKA^y mice. The experiment is classed as in vivo. The note with it: 10 mg/kg once daily oral gavage, 4-week treatment, male KKA^y mice, mean±SD of 8 animals, p < 0.025 vs. control. Here is the method: Six-week-old male KKA^y mice are obtained from commercial vendors and placed on standard chow. Treatment with a MetAP2 inhibitor is initiated after 8-day acclimization. The MetAP2 inhibitor is formulated in an aqueous 0.5% methylcellulose solution, which is administered once daily through oral gavage. Control animals are treated with the equivalent volume of aqueous 0.5% methylcellulose solution without the compound. After 4 weeks, blood is collected from the tail vein of each of the mice. Glycated hemoglobin levels are measured using a Tosoh HLC-723G8 automated glycohemoglobin analyzer, and plasma glucose levels are measured using a Hitachi model 7180 automated glucose analyzer. For evaluation of the hypoglycemic activity of the MetAP2 inhibitor, statistical differences between control- and compound-treated groups are analyzed using a one-tailed Williams test.
TABLE 3 lists glycated hemoglobin (GHb) and plasma glucose (PG) levels in KKA^y mice after a 4-week treatment with the compound shown in Example 1. The study was conducted in accordance with the protocol described in the specification beginning at page 37, using the dose indicated in table. Values are indicated by mean±standard deviation of 8 animals in each group.

Experiment [3] addresses T1, MetAP2 (Homo sapiens, UniProt P50579). The experiment is described as follows: MetAP2 cellular activity: Western blotting of NMet-14-3-3γ in HUVEC cells. The class given is cell-based. Set-up: host or cells: HUVEC. The note with it: 24 hours, ratio of unprocessed N-Met14-3-3γ over β-actin, read-out: MetAP2 Cell pEC50 (converted). On the procedure:
HUVEC cells (Lonza) are seeded in 96-well tissue culture microplates and cultured for 24 hours prior to addition of test compounds (11 point range of serial dilutions) or DMSO vehicle. After 24 hours, whole cell extracts are prepared by lysing cells in cell extraction buffer (Cell Signaling) containing protease and phosphatase inhibitors (Calbiochem). Insoluble material is removed by centrifugation and samples are diluted and boiled in SDS-PAGE buffer. Proteins are resolved by SDS-PAGE and transferred to PVDF membranes. Membranes are blocked then incubated with the appropriate primary antibodies, NMet-14-3-3γ (Novus) and β-actin (Sigma), followed by incubation with secondary IRDye 680- or 800CW-conjugated antibodies (Li-Cor). Membranes are scanned on the Odyssey (Li-Cor) and signals corresponding to N-Met14-3-3γ and β-actin are quantified using LiCor software. Compound EC50s are obtained by curve-fitting the ratios of unprocessed N-Met14-3-3γ protein signal over β-actin protein signal using XLfit4 Microsoft Excel curve-fitting software and are reported as pEC50, i.e., −log(EC50), where EC50 is the molar concentration at 50% effective (maximal) response.
TABLE 1 lists MetAP2 inhibition for some of the compounds shown in the examples, where larger pIC50 and pEC50 values represent higher potency. The compounds shown in TABLE 1 were tested in accordance with the enzyme assay (pIC50) described in the specification beginning at page 35, in which the MetAP2 enzyme is complexed with cobalt or manganese ions, and in accordance with the cellular assay (pEC50) described in the specification beginning at page 36.

Experiment [4] addresses T1, MetAP2. Kind of experiment: Enzyme assay: inhibition of MetAP2 (Met-AMC substrate, fluorescence). The experiment is classed as biochemical. Set-up: made in house; host or cells: Spodoptera frugiperda Sf9 cells (baculovirus, pFastBac). Here is the method:
DNA encoding the full-length sequence of human MetAP2 enzyme is amplified by PCR and cloned into a pFastBac expression vector (Invitrogen). Recombinant baculovirus incorporating the MetAP2 construct is generated by transposition using the Bac-to-Bac system (Invitrogen). The expression of recombinant protein is carried out by infection of Spodoptera frugiperda Sf9 cells (Invitrogen) in 5 L Wave Bioreactors (Wave Biotech). Recombinant protein is isolated from cellular extracts by binding to an SP Hitrap Fast Flow or SP Sepharose (Sigma) column, and the protein is eluted using a NaCl gradient. Partially purified extracts of MetAP2 are further purified by an AKTA FPLC over a Superdex-200 column (GE). The purity of MetAP2 protein is determined on denaturing SDS-PAGE gel. Purified MetAP2 protein is concentrated to a final concentration of 17 mg/mL or 2.5 mg/mL. The protein is stored at −78° C. in a buffer containing 10 mM HEPES pH 7.4, 150 mM NaCl, and 1 mM CoCl2 or in a buffer containing 20 mM HEPES pH 7.4, 120 mM NaCl, and 5 mM MnCl2.
The inhibition of MetAP2 is determined using a black 384-well-plate format under the following reaction conditions: 50 mM Hepes pH 7.5, 100 mM NaCl, 10 μM MnCl2 or 10 μM CoCl2, 0.005% Brij35®, 1 mM TCEP, 1% DMSO. To initiate the assay, 4 μL of 5 to 50 nM MetAP2 enzyme solution (enzyme final concentration is 2 to 20 nM) is added to each well, followed by the addition of 2 μL of the test compound (2.5-fold serial dilutions for 11 data points for each test compound) in a buffer solution containing 5% DMSO. Next, 4 μL of a substrate solution (2.5×Km of Met-AMC) is added to each well of the plate (final substrate concentration at Km value). The reaction rate is monitored by reading fluorescence at 460 nm with excitation wavelength at 330 nm for 10 to 30 minutes using a fluorescence plate reader. The results for each well are expressed as percent inhibition and calculated using the equation: […]

Where [5] appears, read: MetAP2 enzyme complexed with cobalt ions, read-out: MetAP2 Co pIC50 (converted).

SMILES strings stand for the structures. Read-outs that look alike come from different tables or passages of the source.

T1 sequence (P50579 whole entry): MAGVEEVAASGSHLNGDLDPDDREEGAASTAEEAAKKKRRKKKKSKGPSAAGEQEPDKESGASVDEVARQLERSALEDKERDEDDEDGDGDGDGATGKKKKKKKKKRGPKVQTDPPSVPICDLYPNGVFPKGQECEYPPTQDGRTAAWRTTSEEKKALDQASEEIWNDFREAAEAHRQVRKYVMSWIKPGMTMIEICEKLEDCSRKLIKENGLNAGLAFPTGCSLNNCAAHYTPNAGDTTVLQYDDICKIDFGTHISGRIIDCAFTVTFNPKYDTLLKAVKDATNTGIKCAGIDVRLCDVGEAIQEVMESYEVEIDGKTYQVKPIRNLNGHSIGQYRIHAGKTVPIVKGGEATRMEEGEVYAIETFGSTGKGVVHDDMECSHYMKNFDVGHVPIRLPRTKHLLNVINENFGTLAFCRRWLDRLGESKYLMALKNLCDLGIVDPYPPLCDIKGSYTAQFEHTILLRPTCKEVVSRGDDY

For `CO[C@@H]1[C@H](OCCP(=O)(c2ccccc2)c2ccccc2)CC[C@]2(CO2)[C@H]1[C@@]1(C)O[C@@H]1CC=C(C)C` [Example 1, (2-(((3R,4S,5S,6R)-5-methoxy-4-((2R,3R)-2-methyl-3-(3-methylbut-2-en-1-yl)oxiran-2-yl)-1-oxaspiro[2.5]octan-6-yl)oxy)ethyl)diphenylphosphine oxide], the BWL in experiment [1] (3 mg/kg) was found to be 18%. Also, the “GHb (glycated hemoglobin)” value in experiment [2] (control 6.8 ± 0.4) turned out to be 5.6 ± 0.4 %. For the same molecule, the “PG (plasma glucose)” value in experiment [2] (control 436.6 ± 64.4) was 296.5 ± 77.4 mg/dL. For the same molecule, the EC50 at MetAP2 [3] is 4.79 nM. Also, the IC50 at MetAP2 [4] (setting [5]) was 44.7 nM; on MetAP2 [4] (MetAP2 enzyme complexed with manganese ions, read-out: MetAP2 Mn pIC50 (converted)) it was 200 nM.

`CO[C@@H]1[C@H](OCCP(=O)(c2ccc(C)cc2)c2ccc(C)cc2)CC[C@]2(CO2)[C@H]1[C@@]1(C)O[C@@H]1CC=C(C)C` [Example 2, (2-(((3R,4S,5S,6R)-5-methoxy-4-((2R,3R)-2-methyl-3-(3-methylbut-2-en-1-yl)oxiran-2-yl)-1-oxaspiro[2.5]octan-6-yl)oxy)ethyl)di-p-tolylphosphine oxide]: at MetAP2 [3], the EC50 was 6.61 nM.

As to `CO[C@@H]1[C@H](OCCP(=O)(OC)OC)CC[C@]2(CO2)[C@H]1[C@@]1(C)O[C@@H]1CC=C(C)C` [Example 4, dimethyl (2-(((3R,4S,5S,6R)-5-methoxy-4-((2R,3R)-2-methyl-3-(3-methylbut-2-en-1-yl)oxiran-2-yl)-1-oxaspiro[2.5]octan-6-yl)oxy)ethyl)phosphonate], the EC50 at MetAP2 [3] is 3.47 nM.

As for `CCOP(=O)(CCO[C@@H]1CC[C@]2(CO2)[C@@H]([C@@]2(C)O[C@@H]2CC=C(C)C)[C@@H]1OC)OCC` [Example 5, diethyl (2-(((3R,4S,5S,6R)-5-methoxy-4-((2R,3R)-2-methyl-3-(3-methylbut-2-en-1-yl)oxiran-2-yl)-1-oxaspiro[2.5]octan-6-yl)oxy)ethyl)phosphonate], the BWL in experiment [1] (1 mg/kg) is 18%. For the same molecule, the EC50 at MetAP2 [3] is 6.17 nM. Moreover, the IC50 at MetAP2 [4] (setting [5]) is 97.7 nM.

(Values after patent publication US9827255B2, “Fumagillol derivatives” (Takeda Pharmaceutical Company Limited, priority 2014, dated 2017).)
